Reference: patent US8399493B2, “Pyridinone derivatives and their use as positive allosteric modulators of mGluR2-receptors” (Janssen Pharmaceuticals, Inc., priority 2004, dated 2013)

Structure (SMILES) | melting point
COCc1ccc(Cn2cc(-c3ccc(OC)cc3)ccc2=O)cc1 [4-25, 1-(4-(Methoxymethyl)benzyl)-5-(4-methoxyphenyl)pyridin-2(1H)-one] | 72 °C
COC(=O)c1ccc(Cn2cc(-c3ccc(OC)cc3)ccc2=O)cc1 [4-27] | 147 to 150 °C
COc1ccc(-c2ccc(=O)n(Cc3cccc(C#N)c3)c2)cc1 [4-29] | 165 °C
COc1ccc(-c2ccc(=O)n(Cc3ccc(C#N)cc3)c2)cc1 [4-30] | 119 to 120 °C
COc1ccc(-c2ccc(=O)n(Cc3ccc(OC(F)(F)F)cc3)c2)cc1 [4-31] | 130 °C
COc1ccc(-c2ccc(=O)n(Cc3ccc([N+](=O)[O-])cc3)c2)cc1 [4-33] | 95 °C
COc1ccc(-c2ccc(=O)n(Cc3ccc(C(F)(F)F)cc3F)c2)cc1 [4-34] | 131 to 134 °C
COc1ccc(-c2ccc(=O)n(Cc3ccc(C(F)(F)F)c(F)c3)c2)cc1 [4-35] | 82 to 84 °C
COc1ccc(-c2ccc(=O)n(Cc3ccc(C)c(F)c3)c2)cc1 [4-36] | 98 to 100 °C
COc1ccc(-c2ccc(=O)n(Cc3ccc4ccccc4c3)c2)cc1 [4-38] | 145 to 148 °C
COc1ccc(-c2ccc(=O)n(Cc3ccc(C(F)(F)F)o3)c2)cc1 [4-39] | 120 °C
COc1ccc(-c2ccc(=O)n(Cc3cc(C)on3)c2)cc1 [4-40] | 100 to 102 °C
COc1ccc(-c2ccc(=O)n(Cc3noc(-c4ccccc4)n3)c2)cc1 [4-41] | 104 °C
COc1ccc(-c2ccc(=O)n(Cc3nc(-c4ccc(F)cc4)no3)c2)cc1 [4-42, 1-((3-(4-Fluorophenyl)-1,2,4-oxadiazol-5-yl)methyl)-5-(4-methoxyphenyl)pyridin-2(1H)-one] | 123 °C
COc1ccc(-c2ccc(=O)n(Cc3ccc(Cl)nc3)c2)cc1 [4-44] | 135 °C
CCc1ccc(Cn2cc(-c3ccc(OC)cc3)ccc2=O)cn1 [4-45, 1-((6-Ethylpyridin-3-yl)methyl)-5-(4-methoxyphenyl)pyridin-2(1H)-one] | 130 °C

Structure (SMILES) | melting point
COc1ccc(-c2ccc(=O)n(Cc3nc4cc(F)ccc4o3)c2)cc1 [4-51, 1-((5-Fluorobenzo[d]oxazol-2-yl)methyl)-5-(4-methoxyphenyl)-pyridin-2(1H)-one] | 115 °C
COc1ccc(-c2ccc(=O)n(Cc3cnc(C)s3)c2)cc1 [4-52] | 127 to 130 °C
COc1ccc(-c2ccc(=O)n(Cc3nc4ccccc4s3)c2)cc1 [4-53] | 121 °C
COc1ccc(-c2ccc(=O)n(Cc3nc4c(F)cccc4s3)c2)cc1 [4-54] | 126 °C
Cc1ccc(-c2ccc(=O)n(Cc3cccc(F)c3)c2)cc1 [6-04] | 112 to 113 °C
COCc1ccc(-c2ccc(=O)n(Cc3ccc(F)c(F)c3)c2)cc1 [6-11] | 85 °C
CC(=O)c1ccc(-c2ccc(=O)n(Cc3ccc(F)c(F)c3)c2)cc1 [6-12] | 142 °C
N#Cc1ccc(-c2ccc(=O)n(Cc3ccc(F)c(F)c3)c2)cc1 [6-13] | 139 °C
O=c1ccc(-c2cccs2)cn1Cc1ccc(F)c(F)c1 [6-15] | 96 °C
O=c1ccc(-c2ccc3c(c2)CCO3)cn1Cc1ccc(F)c(F)c1 [6-17] | 99 °C
O=c1ccc(-c2ccc3c(c2)OCO3)cn1Cc1ccc(F)c(F)c1 [6-18] | 181 °C
O=c1ccc(-c2nc3ccccc3s2)cn1Cc1ccc(Cl)c(F)c1 [6-19, 1-(4-Chloro-3-fluorobenzyl)-5-(benzo[d]thiazol-2-yl)pyridin-2(1H)-one] | 164 °C
O=c1ccc(Br)cn1Cc1ccc(Cl)cc1F [6-20] | 102 °C
O=c1ccc(-c2ccc(O)cc2)cn1Cc1ccc(Cl)cc1F [6-21] | 224 °C
Nc1cccc(-c2ccc(=O)n(Cc3ccc(Cl)cc3F)c2)c1 [6-22] | 70 °C
NCc1ccc(-c2ccc(=O)n(Cc3ccc(Cl)cc3F)c2)cc1 [6-24] | 139 °C
